In this assay the test system is Mus musculus. Kind of assay: Antiangiogenic activity in C57/B6 mouse injected with matrigel containing murine vascular growth factor assessed as reduction in hemoglobin content in matrigel plug at 10ug/10ull to 200 uL matrigel administered subcutaneously measured after 14 days by spectrophotometry-based Drabkin method. Format: functional, organism-based.

Molecules are shown by their SMILES. The source made the active and inactive calls. The rule behind the calls is not given here.

With `O=C(O)Cc1cc(I)c(Oc2cc(I)c(OCCCc3ccccc3)c(I)c2)c(I)c1`, the result was Active.
In the case of `O=C(O)Cc1cc(I)c(Oc2cc(I)c(OCCCN3C(=O)c4ccccc4C3=O)c(I)c2)c(I)c1` it was “Active”.
The result for `O=C(O)Cc1cc(I)c(Oc2cc(I)c(OCc3cccnc3)c(I)c2)c(I)c1` reads “Active”; that for `O=C(O)Cc1cc(I)c(Oc2cc(I)c(O)c(I)c2)c(I)c1`, “Active”; that for `O=C(O)Cc1cc(I)c(Oc2cc(I)c(OCCN3C(=O)c4ccccc4C3=O)c(I)c2)c(I)c1`, “Active”.
Consider `C#CCOc1c(I)cc(Oc2c(I)cc(CC(=O)O)cc2I)cc1I`, for which the result was Active.

For the origin of these results see ChEMBL document CHEMBL4219123, “Synthesis of new analogs of tetraiodothyroacetic acid (tetrac) as novel angiogenesis inhibitors for treatment of cancer” (Bioorg Med Chem Lett, 2018).
